Source: PubChem BioAssay (NCI)
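Values below derive from 48-hour exposures of cells grown in 96-well plates, with endpoints linearly interpolated between the two concentrations bracketing the appropriate inhibition level. Here, GI50 denotes the concentration required for 50% inhibition of growth. TGI is the concentration that stops growth completely.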

What was measured:
Test in all cases: DTP human tumour cell line panel, 48 h
[1] = tested on: PC-3 prostate
[2] = tested on: CCRF-CEM leukemia
[3] = tested on: SK-MEL-2 melanoma
[4] = tested on: SK-MEL-5 melanoma
[5] = tested on: MALME-3M melanoma
[6] = tested on: OVCAR-5 ovarian
[7] = tested on: IGROV1 ovarian
[8] = tested on: 786-0 renal
[9] = tested on: HCT-116 colon
[10] = tested on: MOLT-4 leukemia

Row | SMILES | GI50 [1] [µM] | TGI [1] [µM] | GI50 [2] [µM] | TGI [2] [µM] | GI50 [3] [µM] | TGI [3] [µM] | GI50 [4] [µM] | TGI [4] [µM] | GI50 [5] [µM] | TGI [5] [µM] | GI50 [6] [µM] | TGI [6] [µM] | GI50 [7] [µM] | TGI [7] [µM] | GI50 [8] [µM] | TGI [8] [µM] | GI50 [9] [µM] | TGI [9] [µM] | GI50 [10] [µM] | TGI [10] [µM]
1 | Cc1nc2sc(C(=O)Nc3cccc(Br)c3C)c(N)c2cc1C(O)c1ccccc1 (centres undefined) | 0.0462 | 37.7 | 0.0406 | > 100 | 0.249 | 15.7 | 0.0468 | 0.263 | 0.1 | 20.5 | 0.061 | > 60.2 | 0.0487 | 13.2 | 0.0601 | 10.1 | 0.0371 | 11.8 | 0.0556 | > 100
2 | CCOC(=O)C1=C(C)NC(=O)NC1c1ccc(OC)cc1OC (centres undefined) | – | – | – | > 100 | – | > 100 | – | > 100 | – | > 100 | – | > 100 | – | > 100 | – | > 100 | – | > 100 | – | > 100
3 | C=CCCCCCCCCCP(=O)(c1ccccc1)c1ccc2c(c1)OCCOCCOCCOCCO2 (centres undefined) | – | – | – | 40 | – | 31.9 | – | 24.2 | – | 31.9 | – | 31.2 | – | 30.2 | – | 29.8 | – | 25.1 | – | 24.9
4 | COc1cccc2c1C(=O)c1c(O)c3c(c(O)c1C2=O)C[C@@](O)(/C(CO)=N/NC(=O)CCCCCN1C(=O)C=CC1=O)C[C@@H]3O[C@H]1C[C@H](N)[C@H](O)[C@H](C)O1 | 1.64 | 19.5 | 0.334 | > 100 | 1.68 | 5.33 | – | – | 0.395 | 2.23 | 4.04 | > 100 | 1.04 | > 100 | 0.386 | 9.21 | 0.41 | > 100 | 0.392 | 28.3
5 | C[P+]1(Cc2ccccc2)CCCC1 | – | – | – | > 100 | – | > 100 | – | > 100 | – | > 100 | – | > 100 | – | > 100 | – | > 100 | – | > 100 | – | > 100
6 | CC(=O)[CH-]C(=O)c1ccccc1.CC(=O)[CH-]C(=O)c1ccccc1.Cl.[O-]c1ccnc2ccccc12.[O-]c1ccnc2ccccc12.[Ti+4] | – | – | > 100 | > 100 | > 100 | > 100 | > 100 | > 100 | > 100 | > 100 | > 100 | > 100 | > 100 | > 100 | > 100 | > 100 | – | – | > 100 | > 100
7 | c1ccc(C2=NOC3C4CCC(C4)C23)cc1 (centres undefined) | – | – | – | > 100 | – | > 100 | – | > 100 | – | > 100 | – | > 100 | – | > 100 | – | > 100 | – | > 100 | – | > 100
8 | O=C1c2ccccc2C(=O)N1CCCOCc1c[nH]c(=O)[nH]c1=O | – | – | – | > 100 | – | > 100 | – | > 100 | – | > 100 | – | > 100 | – | > 100 | – | > 100 | – | > 100 | – | > 100
9 | COc1cccc(NC(=O)CSc2nnc(Cc3ccccc3)o2)c1 | – | – | – | > 100 | – | > 100 | – | > 100 | – | > 100 | – | > 100 | – | > 100 | – | > 100 | – | > 100 | – | > 100
10 | CN(C)NC1=C([N+](=O)[O-])C=NN(c2ccccc2)C1 | – | – | – | 4.52 | – | 3.21 | – | 6.41 | – | 3.63 | – | 3.04 | – | 3.9 | – | 3.24 | – | 3.26 | – | 5.05
11 | C=C1C(=O)O[C@H](c2ccoc2)C[C@@H]1[C@@]1(C)CCCC2(C)C(=O)OCC21 (some centres undefined) | – | – | – | > 100 | – | > 100 | – | > 100 | – | > 100 | – | > 100 | – | > 100 | – | > 100 | – | > 100 | – | > 100
12 | CN(c1ccccc1)c1cc2ccccc2nn1 | – | – | – | > 100 | – | > 100 | – | > 100 | – | > 100 | – | > 100 | – | > 100 | – | > 100 | – | > 100 | – | > 100
13 | Cc1cccc(C)c1NC(=O)CCC(=O)NC(N)=NC#N | – | – | – | > 100 | – | – | – | > 100 | – | > 100 | – | > 100 | – | > 100 | – | > 100 | – | > 100 | – | > 100
14 | O=C(Nc1nc(-c2ccc(Cl)cc2)cs1)c1cc(O)c(O)c(O)c1 | – | – | 79 | 760 | – | – | 194 | 881 | 266 | 2980 | 915 | > 5000 | 183 | 939 | 218 | 1020 | 195 | 922 | 130 | 840
15 | CN(C)NC(=O)/C(=C/c1ccc(Cl)cc1)NC(=O)c1ccccc1 | – | – | – | > 100 | – | > 100 | – | > 100 | – | > 100 | – | > 100 | – | > 100 | – | > 100 | – | > 100 | – | > 100
16 | CC1OC(n2cc(C(F)(F)F)c(=O)[nH]c2=O)C=CC1=O (centres undefined) | – | – | – | – | – | 34.6 | – | – | – | 34.2 | – | 33.5 | – | 39.9 | – | 33.1 | – | 29.7 | – | 57.2
17 | COc1ccc(CN2C(=O)[C@@H]3Cc4c(OC)c(C)c(OC)c(OC)c4[C@H](/C2=C\c2cc(OC)c(OC)c(C)c2OC)N3C(=O)OC(C)C)cc1 | – | – | – | > 100 | – | > 100 | – | > 100 | – | > 100 | – | > 100 | – | > 100 | – | > 100 | – | > 100 | – | > 100
18 | CC(=O)OCC1OC(n2cccnc2=O)C(OC(C)=O)C1OC(C)=O (centres undefined) | – | – | – | > 100 | – | > 100 | – | > 100 | – | > 100 | – | > 100 | – | – | – | > 100 | – | > 100 | – | > 100
19 | C[N+](C)(C)CC(=O)N/N=C(\Cc1nc2ccc([N+](=O)[O-])cc2[nH]c1=O)C(=O)Nc1nc2ccc([N+](=O)[O-])cc2s1 | – | > 100 | – | > 100 | – | > 100 | – | > 100 | – | – | – | > 100 | – | > 100 | – | > 100 | – | > 100 | – | > 100
20 | COc1cc2c(cc1OC)C(C(CCCCCC(CCC(C)C)C1NCCc3cc(OC)c(OC)cc31)CCC(C)C)NCC2 (centres undefined) | 1.58 | 3.12 | 0.489 | 2.13 | 2.1 | 3.72 | 1.65 | 3.04 | 2.01 | 4.03 | 1.69 | 3.17 | 2.08 | 3.94 | 1.73 | 3.46 | 0.199 | 0.388 | – | –
